{"source": "patent US11484575B2", "about": "“Compositions and methods comprising bone morphogenetic protein and NEMO binding peptide” (Cedars-Sinai Medical Center, priority 2018, dated 2022)", "key": {"[1]": {"tested_on": "inflammatory bone destruction", "settings": "cited from earlier work"}, "[2]": {"tested_on": "carrageenan-induced edema", "settings": "cited from earlier work"}, "[3]": {"tested_on": "NFκB", "settings": "without affecting the basal activity of IKK; cited from earlier work"}, "[4]": {"settings": "phase I clinical trial in dogs; cited from earlier work"}, "[5]": {"tested_on": "rat spine fusion model", "test": "Manual palpation fusion, rat posterolateral spine fusion model", "type": "in vivo, Sprague Dawley rats", "settings": "freshly harvested spine explants, 12 weeks", "description": "Sixteen male adult (220 to 260 g) Sprague Dawley rats were utilized to compare BMP-2 mediated spine fusion in presence and absence of NBD. […] Therefore, this concentration of BMP-2 was employed. In detail, eight rats underwent single-level posterolateral fusion in the lumber spine using BMP-2 (total dose of 30 μg/side/rat) and NBD ([…]) loaded ACS and eight rats served as positive controls (30 μg/side/rat BMP-2-loaded ACS, no NBD). Rat spines were allowed to heal and consolidate for 12 weeks. Radiographical fusion was determined via high-resolution radiographs obtained at monthly intervals postoperatively. After 12 weeks, ex vivo micro-computed tomography was performed on explanted spines to determine the structural properties of the fusion mass. For functional assessment of spinal fusion, manual palpation was performed. Finally, histological evaluation of spine fusion was performed in terms of Masson-trichrome staining (Table 1). The posterolateral intertransverse process fusion surgical procedure is described briefly. […] The condition of the rats was monitored daily. […] Fusion was determined via manual palpation of segments by two independent observers. Any motion that was detected between the L4 and L5 segment, including the transverse process or vertebral bodies, was considered to indicate a fusion failure. […]"}}, "data": [{"sequence": "TALDWSWLQTE (listed as Homo sapiens) [NBD]", "values": [{"measurement": "inflammatory bone destruction in vivo", "setting": "[1]; continuous administration", "value": "prevent"}, {"measurement": "signs of toxicity", "setting": "[1]; in vivo", "value": "without showing signs of toxicity"}, {"measurement": "paw edema in mice", "setting": "[2]; 100 μg and 500 μg NBD", "value": "ameliorate"}, {"measurement": "carrageenan-induced edema formation and cellular inflammation in mouse paws", "setting": "[2]; mouse, in vivo", "value": "significantly inhibit"}, {"measurement": "pro-inflammatory cytokine-induced NFκB activation", "setting": "[3]", "value": "block"}, {"measurement": "toxicity", "setting": "[4]", "value": "low toxicity"}, {"measurement": "fusion by manual palpation", "setting": "[5]", "value": 100, "unit": "%"}]}]}
